The species named for the experiment is Rattus norvegicus. The experiment can be described thus: In vitro dose required for stimulation of GH release from rat pituitary cells. The experiment is classed as functional. The note with it: Pituitary gland cell, read-out: ED50 (the source's name).
Consider `CC(C)(N)CC(=O)NC1Cc2ccccc2N(Cc2ccc(-c3ccccc3-c3nn[nH]n3)cc2)C1=O` (stereo not given), for which the EC50 amounted to 2000 nM.

As for `CC(C)(N)CC(=O)NC1CCc2ccccc2N(Cc2ccc(-c3ccccc3C(=O)O)cc2)C1=O` (stereo not given), the EC50 worked out at 3200 nM.

Regarding `CC(C)(N)CC(=O)N[C@@H]1CCc2ccccc2N(Cc2ccc(-c3ccccc3-c3nn[nH]n3)cc2)C1=O`, the EC50 is 60 nM.

For the compound `CC(C)(N)CC(=O)NC1CCCc2ccccc2N(Cc2ccc(-c3ccccc3-c3nn[nH]n3)cc2)C1=O` (stereo not given), the EC50 is 8000 nM.

As to `CC(C)(N)CC(=O)NC1CCc2ccccc2N(Cc2ccc(-c3ccccc3-c3nn[nH]n3)cc2)C1=O` [L-158432], the EC50 amounted to 160 nM.

The values are drawn from ChEMBL document CHEMBL1127685, “A novel 3-substituted benzazepinone growth hormone secretagogue (L-692,429)” (1994).
